Tested on: RAW264.7
Test: Anti-inflammatory activity in mouse RAW264.7 cells assessed as inhibition of LPS-induced NO production by Griess assay
Format: functional, cell-based

CC(=O)OC[C@]12[C@H](OC(C)=O)[C@@H](OC(C)=O)[C@@H]3[C@@H](O)[C@]1(OC3(C)C)[C@@](C)(O)C[C@H](OC(C)=O)[C@@H]2OC(=O)/C=C\c1ccccc1
IC50: 31 µM

CC(=O)OC[C@]12[C@H](OC(C)=O)C(=O)[C@@H]3C[C@]1(OC3(C)C)[C@@](C)(O)C[C@H](OC(C)=O)[C@@H]2OC(=O)/C=C/c1ccccc1
IC50: > 100 µM

CC(=O)OC[C@]12[C@H](OC(C)=O)C(=O)[C@@H]3[C@@H](O)[C@]1(OC3(C)C)[C@@](C)(O)C[C@H](OC(C)=O)[C@@H]2OC(=O)/C=C/c1ccccc1
IC50: > 100 µM

CC(=O)OC[C@]12[C@H](OC(C)=O)[C@@H](OC(C)=O)[C@@H]3[C@@H](OC(C)=O)[C@]1(OC3(C)C)[C@@](C)(O)C[C@H](OC(C)=O)[C@@H]2OC(=O)/C=C\c1ccccc1
IC50: > 100 µM

CC(=O)OC[C@]12[C@H](OC(C)=O)[C@@H](OC(C)=O)[C@@H]3C[C@]1(OC3(C)C)[C@@](C)(O)C[C@H](OC(C)=O)[C@@H]2OC(=O)/C=C\c1ccccc1
IC50: 19.1 µM

CC(=O)OC[C@]12[C@H](OC(C)=O)[C@@H](OC(C)=O)[C@@H]3[C@@H](O)[C@]1(OC3(C)C)[C@H](C)[C@@H](O)[C@H](OC(C)=O)[C@@H]2OC(=O)/C=C/c1ccccc1
IC50: > 100 µM

CC(=O)OC[C@]12[C@H](OC(C)=O)[C@@H](O)[C@@H]3[C@@H](O)[C@]1(OC3(C)C)[C@@](C)(O)C[C@H](O)[C@@H]2OC(=O)/C=C/c1ccccc1
IC50: > 100 µM

CC(=O)OC[C@]12[C@H](OC(C)=O)[C@@H](OC(C)=O)[C@@H]3[C@@H](O)[C@]1(OC3(C)C)[C@H](C)C[C@H](OC(C)=O)[C@@H]2OC(=O)/C=C/c1ccccc1
IC50: 11.9 µM

CC(=O)OC[C@]12[C@H](OC(C)=O)[C@@H](OC(C)=O)[C@@H]3[C@@H](O)[C@]1(OC3(C)C)[C@@](C)(O)[C@@H](O)[C@H](OC(C)=O)[C@@H]2OC(=O)/C=C/c1ccccc1
IC50: 53.7 µM

CC(=O)OC[C@]12[C@H](OC(C)=O)[C@@H](OC(C)=O)[C@@H]3C[C@]1(OC3(C)C)[C@@](C)(O)C[C@H](OC(C)=O)[C@@H]2OC(=O)/C=C/c1ccccc1
IC50: > 100 µM

CC(=O)OC[C@]12[C@H](OC(C)=O)[C@@H](OC(C)=O)[C@@H]3C[C@]1(OC3(C)C)[C@H](C)C[C@H](OC(C)=O)[C@@H]2OC(=O)/C=C\c1ccccc1
IC50: > 100 µM

CC(=O)OC[C@]12[C@H](OC(C)=O)[C@@H](OC(C)=O)[C@@H]3[C@@H](O)[C@]1(OC3(C)C)[C@@](C)(O)C[C@H](OC(C)=O)[C@@H]2OC(=O)/C=C/c1ccccc1
IC50: 24.2 µM

CC(=O)OC[C@]12[C@H](OC(C)=O)[C@@H](OC(C)=O)[C@@H]3C[C@]1(OC3(C)C)[C@H](C)C[C@H](OC(C)=O)[C@@H]2OC(=O)/C=C/c1ccccc1
IC50: > 100 µM

CC(=O)OC[C@]12[C@H](OC(C)=O)[C@@H](OC(C)=O)[C@@H]3[C@@H](O)[C@]1(OC3(C)C)[C@H](C)C[C@H](OC(C)=O)[C@@H]2OC(=O)/C=C\c1ccccc1
IC50: 28.2 µM

CC(=O)O[C@H]1C[C@@H](C)[C@]23OC(C)(C)[C@H]([C@H](O)[C@@H](OC(=O)c4ccccc4)[C@]2(CO)[C@H]1OC(=O)/C=C/c1ccccc1)[C@H]3OC(C)=O
IC50: > 100 µM

C[C@]12CCC(=O)C=C1CC[C@@H]1[C@@H]2[C@@H](O)C[C@@]2(C)[C@H]1CC[C@]2(O)C(=O)COC(=O)CCC(=O)O [HYDROCORTISONE SODIUM SUCCINATE]
IC50: 42.4 µM
